Data published in patent US11447511B2, “Dioxolane analogues of uridine for the treatment of cancer” (MEDIVIR AB, priority 2014, dated 2022).

Assays:
[1] = Stability in human intestinal S9 fraction (HIS9); format: in vitro ADME; conditions: human intestinal S9 0.4 mg protein/mL, 5 μM test compound, 37° C.
Protocol: (§1) Stability in Human Intestinal S9 Fraction (HIS9) and in Human Liver S9 Fraction (HLS9),
(§2) Stock solutions of each test compound (10 mM) were prepared in DMSO and stored at −20° C. Prior to the start of the experiment, the test compounds were diluted to 500 μM in 50% acetonitrile in water. The reaction mixture was prepared in a total volume of 250 μL containing 5 mM MgC2, 1 mM NADPH and 5 μM test compound in 50 mM potassium phosphate buffer (pH 7.4). The reaction was initiated by addition of human liver or intestinal S9 fraction with a final concentration of 0.4 mg protein/mL (Xeno Tech). The reaction mixture was incubated on an orbital shaker at 37° C. At the desired time points (0, 10, 30 and 60 minutes) aliquots of 50 μL were taken and the reaction was stopped by mixing with 150 μL acetonitrile containing internal standard. Standard solutions of each test compound were prepared from the 500 μM solution by diluting the solution to a final concentration of 5 μM in boiled human S9 (0.4 mg protein/mL), 5 mM MgCl2 and 50 mM potassium phosphate buffer (pH 7.4). The standards and samples were kept on ice for 30 min then centrifuged at 3 000 g for 20 minutes at 10° C., there after 10 μL of supernatant was mixed with 200 μL 50% acetonitrile in water. 0.5 μM of each test compound in 50% acetonitrile in water was injected into the LC/MS-MS to determine the daughter ion, declustring potential (DP), collision energy (CE) and collision cell exit potential (CXP) in order to develop a LC/MS-MS method. The compounds were separated using a C18 column with a QTRAP5500 system. The mobile phase consisted of solvent A (98% water, 2% acetonitrile, 0.1% acetic acid or 10 mM ammonium acetate) and solvent B (80% acetonitrile, 20% water, 0.1% acetic acid or 10 mM ammonium acetate). Elution of the compounds was performed by using a gradient of solvent B from 0% to 100%. 5 μL of standard points and samples were injected for analysis with QTRAP5500.
(§3) The amount of parent compound was determined on the basis of the peak area for each time point compared to standard which was set to 5 μM. Intrinsic clearance (CLint) and half-life (t1/2) were determined from the disappearance curves of the test compound using Excel software.

[2] = test system: HepG2; experiment: Cell cytotoxicity assay, HEPG2; format: cell-based; conditions: HepG2 cells, 5 days at 37° C., XTT dye
Protocol: (§4) Cells were seeded 24 hours prior to compound addition. Each test compound (serially diluted from 100 μM) was added to Huh7 (1.5×10^4 cells/well) or HepG2 (1.5×10^4 cells/well), and allowed to incubate for 5 days at 37° C. A medium only control was used to determine the minimum absorbance value and an untreated cell value. At the end of the growth period, XTT dye from Polysciences Europe GmbH was added to each well. The absorbance at 450 nm with a reference wavelength of 600 nm was read with a Sunrise (Tecan) using the medium only control wells as blanks. The 50% inhibition value (CC50) was determined by comparing the degree of inhibition (compared to cell control) plotted against compound concentration. Results from the dilution series were fitted to a sigmoidal dose-response curve.
(§5) Compounds of the invention were evaluated in these assays to assess the stability in human intestinal S9 fraction (HIS9) and human liver S9 fraction (HLS9), and for Cell Cytotoxicity in HUH7, HEP3B and HEPG2 cells.

[3] = Stability in human liver S9 fraction (HLS9); format: in vitro ADME; conditions: human liver S9 0.4 mg protein/mL, 5 μM test compound, 37° C.; for microsomal CLint at 5 μM: liver S9 fraction, pH 7.4
Protocol: as §1, §2, §3

[4] = test system: HEP3B; experiment: Cell cytotoxicity assay, HEP3B; format: cell-based; conditions: HEP3B cells
Protocol: as §4, §5

[5] = test system: Huh7; experiment: Cell cytotoxicity assay, HUH7; format: cell-based; conditions: Huh7 cells, 5 days at 37° C., XTT dye
Protocol: as §4, §5

[6] = Cell cytotoxicity assay, HEPG2; format: cell-based; conditions: human; HepG2 cells, 5 days at 37° C., XTT dye
Protocol: as §4, §5

[7] = Cell cytotoxicity assay, HUH7; format: cell-based; conditions: human; Huh7 cells, 5 days at 37° C., XTT dye
Protocol: as §4, §5

| CLint Intestinal S9 [1] [µL/min/mg] | CLint Liver S9 [3] [µL/min/mg] | Structure (SMILES) | CC50 [2] [nM] | CC50 [4] [nM] | CC50 [5] [nM] | CC50 at 5 days [6] [nM] | microsomal CLint at 5 μM [3] [µL/min/mg] | CC50 at 5 days [7] [nM] | microsomal CLint at 5 μM ([1]; intestinal S9 fraction, pH 7.4) [µL/min/mg] |
| --- | --- | --- | --- | --- | --- | --- | --- | --- | --- |
| 6 | 7 | COC(=O)[C@H](C)NP(=O)(OC[C@H]1OC[C@@H](n2ccc(N)nc2=O)O1)Oc1ccccc1 (single isomer, unassigned; dia-1) [26 dia-1] | 1210 | 4340 | – | – | – | – | – |
| 6 | 21 | CC[C@@H](C)OC(=O)[C@H](C)NP(=O)(OC[C@H]1OC[C@@H](n2ccc(N)nc2=O)O1)Oc1ccccc1 (single isomer, unassigned; dia-1) [18 dia-1] | 248 | 228 | 461 | – | – | – | – |
| 6 | 10 | COC(=O)[C@H](C)NP(=O)(OC[C@H]1OC[C@@H](n2ccc(N)nc2=O)O1)Oc1ccccc1 (single isomer, unassigned; dia-2) [26 dia-2] | 1060 | 4020 | 4730 | – | – | – | – |
| 36 | 91 | C[C@H](NP(=O)(OC[C@H]1OC[C@@H](n2ccc(N)nc2=O)O1)Oc1cccc2ccccc12)C(=O)OC1CCCCC1 (single isomer, unassigned; dia-1) [6 dia-1] | 92 | – | 258 | – | – | – | – |
| 7 | 30 | CC[C@@H](C)OC(=O)[C@H](C)NP(=O)(OC[C@H]1OC[C@@H](n2ccc(N)nc2=O)O1)Oc1ccccc1 (single isomer, unassigned; dia-2) [18 dia-2] | 65 | 113 | 76 | – | – | – | – |
| 52 | 49 | C[C@H](NP(=O)(OC[C@H]1OC[C@@H](n2ccc(N)nc2=O)O1)Oc1cccc2ccccc12)C(=O)OC1CCCC1 (single isomer, unassigned; dia-1) [22 dia-1] | 12 | – | 33 | – | – | – | – |
| 17 | 24 | C[C@H](NP(=O)(OC[C@H]1OC[C@@H](n2ccc(N)nc2=O)O1)Oc1ccccc1)C(=O)OCc1ccccc1 (single isomer, unassigned; dia-2) [19 dia-2] | 14 | 58 | 71 | – | – | – | – |
| 29 | 61 | CCC(CC)OC(=O)[C@H](C)NP(=O)(OC[C@H]1OC[C@@H](n2ccc(N)nc2=O)O1)Oc1ccccc1 (single isomer, unassigned; dia-1) [21 dia-1] | 163 | – | 574 | – | – | – | – |
| 171 | 133 | C[C@H](NP(=O)(OC[C@H]1OC[C@@H](n2ccc(N)nc2=O)O1)Oc1cccc2ccccc12)C(=O)OCc1ccccc1 (single isomer, unassigned; dia-1) [9 dia-1] | 23 | – | 164 | – | – | – | – |

Second part, the compound before the results:

| Structure (SMILES) | CLint Intestinal S9 [1] [µL/min/mg] | CLint Liver S9 [3] [µL/min/mg] | CC50 [2] [nM] | CC50 [4] [nM] | CC50 [5] [nM] | CC50 at 5 days [6] [nM] | microsomal CLint at 5 μM [3] [µL/min/mg] | CC50 at 5 days [7] [nM] | microsomal CLint at 5 μM ([1]; intestinal S9 fraction, pH 7.4) [µL/min/mg] |
| --- | --- | --- | --- | --- | --- | --- | --- | --- | --- |
| CC(C)OC(=O)[C@H](C)NP(=O)(OC[C@H]1OC[C@@H](n2ccc(N)nc2=O)O1)Oc1ccccc1 (single isomer, unassigned) [Example 2] | 6 | – | – | – | – | 248 | 13 | 1750 | – |
| CCC[C@H](C)OC(=O)[C@H](C)NP(=O)(OC[C@H]1OC[C@@H](n2ccc(N)nc2=O)O1)Oc1ccccc1 (single isomer, unassigned; dia-2) [20 dia-2] | 6 | 25 | 60 | 78 | 73 | – | – | – | – |
| CCC[C@H](C)OC(=O)[C@H](C)NP(=O)(OC[C@H]1OC[C@@H](n2ccc(N)nc2=O)O1)Oc1ccc(C2CC2)cc1 (single isomer, unassigned; dia-2) [16 dia-2] | 8 | 59 | 130 | 53 | 152 | – | – | – | – |
| CCC[C@H](C)OC(=O)[C@H](C)NP(=O)(OC[C@H]1OC[C@@H](n2ccc(N)nc2=O)O1)Oc1ccc(C2CC2)cc1 (single isomer, unassigned; dia-1) [16 dia-1] | 8 | 50 | 151 | 106 | 1200 | – | – | – | – |
| CCCC(CCC)COC(=O)[C@H](C)NP(=O)(OC[C@H]1OC[C@@H](n2ccc(N)nc2=O)O1)Oc1ccc(Br)cc1 (single isomer, unassigned; dia-1) [23 dia-1] | 32 | 186 | 8.6 | 10 | – | – | – | – | – |
| CCCC(CCC)COC(=O)[C@H](C)NP(=O)(OC[C@H]1OC[C@@H](n2ccc(N)nc2=O)O1)Oc1ccccc1 (single isomer, unassigned; dia-2) [8 dia-2] | – | – | 17 | 35 | 74 | – | – | – | – |
| CC(C)OC(=O)[C@H](C)NP(=O)(OC[C@H]1OC[C@@H](n2ccc(N)nc2=O)O1)Oc1ccccc1 (single isomer, unassigned) [Example 3] | 6 | – | – | – | – | 371 | 8 | 3280 | – |
| CC[C@@H](C)OC(=O)[C@H](C)NP(=O)(OC[C@H]1OC[C@@H](n2ccc(N)nc2=O)O1)Oc1ccc([Si](C)(C)C)cc1 (single isomer, unassigned; dia-1) [11 dia-1] | 6 | 51 | 54 | 18 | 26 | – | – | – | – |
| CC[C@@H](C)OC(=O)[C@H](C)NP(=O)(OC[C@H]1OC[C@@H](n2ccc(N)nc2=O)O1)Oc1ccc([Si](C)(C)C)cc1 (single isomer, unassigned; dia-2) [11 dia-2] | 28 | 81 | 54 | 31 | – | – | – | – | – |
| COC(=O)[C@H](Cc1ccccc1)NP(=O)(OC[C@H]1OC[C@@H](n2ccc(N)nc2=O)O1)Oc1ccccc1 (single isomer, unassigned) [28 dia-2] | – | – | – | – | – | 2720 | 20 | 15600 | 40 |
| CCC(CC)COC(=O)[C@H](C)NP(=O)(OC[C@H]1OC[C@@H](n2ccc(N)nc2=O)O1)Oc1ccccc1 (single isomer, unassigned; dia-2) [15 dia-2] | 36 | 95 | 19 | – | 26 | – | – | – | – |
| CCCCCCCCCCCCCCCC(=O)Nc1ccn([C@@H]2CO[C@H](COP(=O)(N[C@@H](C)C(=O)OC(C)C)Oc3ccccc3)O2)c(=O)n1 (single isomer, unassigned; dia-2) [35 dia-2] | 51 | 34 | 7 | – | 11 | – | – | – | – |
| COC(=O)[C@H](C)NP(=O)(OC[C@H]1OC[C@@H](n2ccc(N)nc2=O)O1)Oc1ccc(Br)cc1 (single isomer, unassigned; dia-1) [27 dia-1] | 11 | 38 | 151 | – | 1440 | – | – | – | – |
